For one data set, the target named is T1, α-syn (Homo sapiens, UniProt P37840).
T1 construct: purchased Bachem Corp
Description: α-syn aggregation kinetics, ThT fluorescent labeling. To be noted: 35 μM α-syn, 5 ppm CuNCs or ligand alone, 37° C., 70 hours. Type of data set: biochemical. How it is done:
CuNCs modified with different ligands were prepared according to literatures. Thioflavin T (abbreviation: ThT) is a highly sensitive fluorescent marker used to identify the presence of amyloid. […] When ThT encounters amyloid polypeptide or protein with a fiber structure, it will immediately adjacent to the amyloid polypeptides or proteins and its fluorescence intensity will increase exponentially. Therefore, ThT is widely used as a maker to monitor amyloidosis of peptides or proteins. This embodiment adopts ThT fluorescent labeling method to monitor the kinetics process of fibrosis aggregation of α-syn in the presence of CuNCs. The specific experiment method is as follows.
Pretreatment of α-syn monomers: Dissolve freeze-dried α-syn powder (Bachem Corp.) in HFIP to obtain a 1 g/L α-syn solution. […]
Sample preparation and detection: Add ligand modified CuNCs to α-syn PBS solution to reach final concentrations of 5 ppm and 35 μM for CuNCs and α-syn, respectively. Incubate the solution continuously in a 96-well plate at 37° C., monitor the fluorescence intensity by microplate reader every 10 minutes, and characterize the kinetics process of α-syn aggregation through the change of fluorescence intensity of ThT. […]

The test system of a further data set is RGC-5 cells. The data set is described as follows: H2O2-induced glaucoma cell (RGC-5) model, CCK-8 cell viability. The format is cell-based. Particulars: 20 ppm of GSH and 100 μM of H2O2, 24 hours. Here is the method: RGC-5 cells in logarithmic growth phase were diluted with complete medium (DMEM medium+10% FBS+1% penicillin-streptomycin) into a cell suspension with a density of 5×10^4/mL, inoculated with 100 μL per well in 96-well plates. The cells were cultured at 37° C. in a 5% CO2 incubator. After the cells were attached, the original culture solution was discarded, and 50 μL of different concentrations of CuNCs prepared from maintenance medium (DMEM medium+2% FBS+1% penicillin-streptomycin) were added to different wells. The final concentrations were 0.5, 5 and 20 ppm respectively (i.e. groups 5, 6, 7 respectively in FIG. 19). After pretreatment for 2 h, about 50 μL of H2O2 (final concentration of 105 μM) was added. The cells were incubated for 24 h, and 10% CCK-8 was added to each well for 4 h. The absorbance values of the respective wells were measured at the wavelength of 450 nm to evaluate the protection effect of CuNCs against H2O2-induced damages. In the above experiments, provided were a blank control group in which cells were not treated, a model control group in which cells were treated with 105 μM H2O2, a CuNCs control group in which 100 ppm of CuNCs were added but no H2O2 was added, and a ligand control group in which 20 ppm ligand and 105 μM H2O2 were added (i.e. groups 1, 2, 3, 4 respectively in FIG. 19).

Another data set relates to SH-sy5y cells. The data set is described as follows: MPP+ induced PD cells (SH-sy5y) model, CCK-8 cell viability. Particulars: 1 mM MPP+, ligand 20 ppm, 24 h.

Description for SH-sy5y cells: 1) Take SH-sy5y cells in the logarithmic growth phase. Dilute them with complete medium to form a cell suspension with a cell density of 5×10^4/mL. Plate 200 μl of the cell suspension into each well of a 96-well plate and cultivate in an environment of 37° C. and 5% CO2 in an incubator. The sample is added after the cells are attached.
2) Add 100 μL of ligand-modified CuNCs samples or ligand-modified copper nanoparticles samples with different particle sizes, which are prepared using maintenance medium to make the final concentration being 0.1 ppm, 1 ppm, 5 ppm, 10 ppm and 20 ppm, respectively. After 2 hours of pretreatment with ligand-modified CuNCs, the different groups of cells were added with MPP^+ (final concentration is 1 mM). […] Then the cells were cultured at 37° C. for 24 h. After centrifugation to remove the culture medium, 100 μL maintenance medium containing 10% CCK-8 were added to each well, and then incubate for 4 h. The absorbance of each well was then measured at 450 nm. The absorbance could reflect the pre-protective and curative effects of ligand-modified CuNCs against MPP^+ lesion.

Regarding `N[C@@H](CCC(=O)N[C@@H](CS)C(=O)NCC(=O)O)C(=O)O` [GSH, L-glutathione], the “α-syn aggregation and fibrosis (ThT fluorescence intensity)” value on α-syn is listed as “does not have an obvious effect”. Moreover, the results for the “cell viability, ligand control group” value with RGC-5 cells and with SH-sy5y cells were 56.5±5.9% and 56.9±3.4%, respectively.

Source of the values: US20210379199A1, “COPPER NANOCLUSTERS, COMPOSITION COMPRISING THE SAME, AND TREATMENT OF NEURODEGENERATIVE DISEASES” (Shenzhen Profound-View Pharma Tech Co., Ltd, priority 2019, published 2021).
